Assay results: patent US11613556B2, “Oxysterols and methods of use thereof” (Sage Therapeutics, Inc., priority 2016, dated 2023)

Biological target: glutamate-activated channels of the GRIN1/2A subtype stably transfected in HEK 293 cells (Homo sapiens (Human), UniProt Q05586+Q12879)
Experiment: Automated patch-clamp system (QPatch HTX), percent potentiation at 1 μM
Format: cell-based
Details: HEK293, 1 μM test compound, 300 μM NMDA with 8 μM glycine, HEK 293 GRIN1/2A, read-out: GluN2A PCA % potentiation at 1 μM
Procedure: NMDA potentiation in mammalian cells which expressed NMDA receptors was assessed using the automatic patch-clamp system can be used determine the NAM activity of compounds as described below. An whole cell patch-clamp system can be used determine the PAM activity of compounds as described below.
Automated Patch-Clamp System (OPatch HTX):
In this study, HEK 293 cells stably transfected with glutamate-activated channels of the GRIN1/2A subtype will be used together with submaximal NMDA concentrations (300 μM NMDA, co-application with 8 μM Glycine) to investigate the negative allosteric modulation of the test compounds.
In general, cells will be passaged at a confluence of about 80% to […]. For electrophysiological measurements cells will be harvested at a confluence of about 80% to 90% from sterile culture flasks containing culture complete medium. Cells will be transferred as suspension in PBS to the QPatch 16X or QPatch HTX system to the centrifuge/washer directly.
Standard Laboratory Conditions: Cells will be incubated at 37° C. in a humidified atmosphere with 5% CO2 (rel. humidity about 95%).
Culture media: The cells will be continuously maintained in and passaged in sterile culture flasks containing a 1:1 mixture of Dulbecco's modified eagle medium and nutrient mixture F-12 (D-MEM/F-12 1×, liquid, with L-Glutamine) supplemented with 10% fetal bovine serum, 1% Penicillin/Streptomycin solution, and 50 μM AP-5 blocker.
Antibiotics: The complete medium as indicated above is supplemented with 100 μg/mL hygromycin, 15 μg/mL blasticidin and 1 μg/mL puromycin.
Induction of Expression: 2.5 μg/mL tetracycline is added 24 h before start of experiments.
Dose levels are in terms of test compounds, as supplied. Vehicle will be added to achieve a stock concentration of 10 mM (storage at −10° C. to −30° C.). A further stock solutions of 1.0 mM will be prepared in DMSO. Details of stock solution usage (thawing, dose formulations) will be documented in the raw data. The time period of stock solution usage will be detailed in the report.
Test Compound Concentrations
One test concentration of 1.0 μM will be tested.
All test solutions will be prepared by diluting the stock solutions with either Mg-free bath solution only or Mg-free bath solution containing NMDA (300 μM) and glycine (8.0 μM) shortly prior to the electrophysiological experiments and kept at room temperature (19° C. to 30° C.) when in use. 0.1% DMSO will be used as vehicle.
Frequency of preparation: For each test concentration, fresh solutions of test compounds will be prepared every day.
Stability of dose formulation: All preparation times will be documented in the raw data. Any observations regarding instability of test compounds will be mentioned in the raw data.
Storage of dose formulation: On the day of experimentation dose formulations will be maintained at room temperature (19° C. to 30° C.) when in use.
For preparing the experiments and for formation of the giga-ohm-seal, the following standard bath solution will be used:
Sodium Chloride: 137 mM; Potassium Chloride: 4 mM; Calcium Chloride: 1.8 mM; Magnesium Chloride: 1 mM; HEPES: 10 mM; D-Glucose: 10 mM; Cremophor: 0.02%; pH (NaOH): 7.4
The 1× bath solution will be prepared by diluting 10× bath solution without Glucose and 100× Glucose solution with water at least every 7 days. Both stock solutions have been prepared prior to the experimental start of the present study and stored at 1° C. to 9° C. (10× bath solution) or −10° C. to −30° (100× Glucose solution). The batch number(s) of the bath solution(s) used in the experiments will be documented in the raw data. When in use, the 1× bath solution will be kept at room temperature (19° C. to 30° C.). When not in use, the 1× bath solution will be stored at 1° C. to 9° C.
After the giga-seal was formed the following Mg-free bath solution will be used:
Sodium Chloride: 137 mM; Potassium Chloride: 4 mM; Calcium Chloride; 2.8 mM; HEPES: 10 mM; D-Glucose: 10 mM; Cremophor: 0.02%; pH (NaOH): 7.4 […]

glutamate-activated channels of the GRIN1/2A subtype stably transfected in HEK 293 cells, sequence (Q12879 whole entry, looked up, other chains not shown): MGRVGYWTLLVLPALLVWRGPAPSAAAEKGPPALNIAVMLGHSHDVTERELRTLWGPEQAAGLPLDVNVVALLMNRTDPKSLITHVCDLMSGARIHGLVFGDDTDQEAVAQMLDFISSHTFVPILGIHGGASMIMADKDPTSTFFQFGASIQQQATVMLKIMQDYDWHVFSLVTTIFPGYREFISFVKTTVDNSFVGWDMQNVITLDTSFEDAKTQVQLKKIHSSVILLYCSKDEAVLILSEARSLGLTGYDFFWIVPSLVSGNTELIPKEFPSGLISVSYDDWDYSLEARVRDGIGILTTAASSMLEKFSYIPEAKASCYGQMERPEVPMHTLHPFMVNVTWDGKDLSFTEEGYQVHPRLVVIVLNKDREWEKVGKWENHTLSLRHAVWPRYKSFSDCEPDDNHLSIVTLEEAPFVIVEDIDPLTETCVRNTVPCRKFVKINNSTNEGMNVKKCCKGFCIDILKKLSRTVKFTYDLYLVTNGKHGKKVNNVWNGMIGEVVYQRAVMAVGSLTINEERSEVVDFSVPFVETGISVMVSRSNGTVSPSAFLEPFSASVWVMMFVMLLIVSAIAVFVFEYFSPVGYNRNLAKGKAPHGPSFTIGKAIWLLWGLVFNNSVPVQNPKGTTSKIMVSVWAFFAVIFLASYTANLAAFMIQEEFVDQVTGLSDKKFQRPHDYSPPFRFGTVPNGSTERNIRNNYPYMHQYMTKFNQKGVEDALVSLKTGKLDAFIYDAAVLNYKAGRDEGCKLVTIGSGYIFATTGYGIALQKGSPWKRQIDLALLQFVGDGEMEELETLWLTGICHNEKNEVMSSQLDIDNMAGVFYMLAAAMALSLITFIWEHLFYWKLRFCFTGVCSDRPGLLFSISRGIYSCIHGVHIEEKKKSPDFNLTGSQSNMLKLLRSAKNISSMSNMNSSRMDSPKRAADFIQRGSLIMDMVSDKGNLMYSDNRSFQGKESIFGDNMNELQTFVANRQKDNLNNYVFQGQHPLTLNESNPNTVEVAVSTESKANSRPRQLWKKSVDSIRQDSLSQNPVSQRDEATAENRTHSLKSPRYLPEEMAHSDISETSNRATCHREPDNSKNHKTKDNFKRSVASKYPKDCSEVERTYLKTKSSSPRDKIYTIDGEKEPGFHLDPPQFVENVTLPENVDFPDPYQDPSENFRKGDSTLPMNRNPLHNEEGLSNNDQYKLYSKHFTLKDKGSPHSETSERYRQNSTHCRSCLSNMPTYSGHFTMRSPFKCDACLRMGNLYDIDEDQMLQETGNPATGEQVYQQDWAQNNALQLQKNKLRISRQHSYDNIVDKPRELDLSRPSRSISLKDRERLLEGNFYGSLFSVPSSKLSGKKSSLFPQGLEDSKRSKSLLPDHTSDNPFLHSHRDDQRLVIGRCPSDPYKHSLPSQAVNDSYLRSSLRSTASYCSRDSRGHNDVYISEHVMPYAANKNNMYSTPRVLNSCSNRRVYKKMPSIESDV

C[C@@H]([C@H]1CC[C@H]2[C@@H]3CC[C@H]4C[C@](O)(C(F)(F)F)CC[C@]4(C)[C@H]3CC[C@]12C)[C@@H](C)O [Compound 22, (3S,5S,8R,9S,10S,13S,14S,17R)-17-((2S,3R)-3-hydroxybutan-2-yl)-10,13-dimethyl-3-(trifluoromethyl)hexadecahydro-1H-cyclopenta[a]phenanthren-3-ol]
activation at 1 µM: -10 to 10%

COC[C@]1(O)CC[C@@]2(C)[C@H](CC[C@@H]3[C@@H]2CC[C@]2(C)[C@@H]([C@H](C)[C@H](O)C(F)(F)F)CC[C@@H]32)C1 [Compound 71, (3S,5R,8R,9S,10S,13S,14S,17R)-3-(methoxymethyl)-10,13-dimethyl-17-((2S,3S)-4,4,4-trifluoro-3-hydroxybutan-2-yl)hexadecahydro-1H-cyclopenta[a]phenanthren-3-ol]
activation at 1 µM: -40 to -10%

COC[C@]1(O)CC[C@@]2(C)[C@H](CC[C@@H]3[C@@H]2CC[C@]2(C)[C@@H]([C@H](C)[C@@H](O)C(F)(F)F)CC[C@@H]32)C1 [Compound 9, (3S,5R,8R,9S,10S,13S,14S,17R)-3-(methoxymethyl)-10,13-dimethyl-17-((2S,3R)-4,4,4-trifluoro-3-hydroxybutan-2-yl)hexadecahydro-1H-cyclopenta[a]phenanthren-3-ol]
activation at 1 µM: -40 to -10%

C[C@H]([C@H](C)O)[C@H]1CC[C@H]2[C@@H]3CC[C@H]4C[C@](O)(C(F)(F)F)CC[C@]4(C)[C@H]3CC[C@]12C [Compound 91, (3S,5S,8R,9S,10S,13S,14S,17R)-17-((2S,3S)-3-hydroxybutan-2-yl)-10,13-dimethyl-3-(trifluoromethyl)hexadecahydro-1H-cyclopenta[a]phenanthren-3-ol]
activation at 1 µM: -40 to -10%

CC[C@]1(O)CC[C@@]2(C)[C@@H](CC[C@@H]3[C@@H]2CC[C@]2(C)[C@@H]([C@H](C)[C@H](C)O)CC[C@@H]32)C1 [Compound 50, (3S,5S,8R,9S,10S,13S,14S,17R)-3-ethyl-17-((2S,3S)-3-hydroxybutan-2-yl)-10,13-dimethylhexadecahydro-1H-cyclopenta[a]phenanthren-3-ol]
activation at 1 µM: -40 to -10%

CC[C@]1(O)CC[C@@]2(C)[C@@H](CC[C@@H]3[C@@H]2CC[C@]2(C)[C@@H]([C@H](C)[C@@H](O)C4CCOCC4)CC[C@@H]32)C1 [Compound 86, (3S,5S,8R,9S,10S,13S,14S,17R)-3-ethyl-17-((1S,2S)-1-hydroxy-1-(tetrahydro-2H-pyran-4-yl)propan-2-yl)-10,13-dimethylhexadecahydro-1H-cyclopenta[a]phenanthren-3-ol]
activation at 1 µM: -40 to -10%

CC#CC[C@H](O)[C@@H](C)[C@H]1CC[C@H]2[C@@H]3CC[C@H]4C[C@](O)(CC)CC[C@]4(C)[C@H]3CC[C@]12C [Compound 41, (3S,5S,8R,9S,10S,13S,14S,17R)-3-ethyl-17-((2S,3S)-3-hydroxyhept-5-yn-2-yl)-10,13-dimethylhexadecahydro-1H-cyclopenta[a]phenanthren-3-ol]
activation at 1 µM: -40 to -10%

CC[C@]1(O)CC[C@@]2(C)[C@@H](CC[C@@H]3[C@@H]2CC[C@]2(C)[C@@H]([C@H](C)[C@H](O)CC4CCOCC4)CC[C@@H]32)C1 [Compound 18, (3S,5S,8R,9S,10S,13S,14S,17R)-3-ethyl-17-((2S,3R)-3-hydroxy-4-(tetrahydro-2H-pyran-4-yl)butan-2-yl)-10,13-dimethylhexadecahydro-1H-cyclopenta[a]phenanthren-3-ol]
activation at 1 µM: -10 to 10%

CC[C@]1(O)CC[C@@]2(C)C(=CC[C@H]3[C@@H]4CC[C@H]([C@H](C)[C@@H](O)C(F)(F)F)[C@@]4(C)CC[C@@H]32)C1 [Compound 62, (3S,8S,9S,10R,13S,14S,17R)-3-ethyl-10,13-dimethyl-17-((2S,3R)-4,4,4-trifluoro-3-hydroxybutan-2-yl)-2,3,4,7,8,9,10,11,12,13,14,15,16,17-tetradecahydro-1H-cyclopenta[a]phenanthren-3-ol]
activation at 1 µM: -40 to -10%

CC[C@]1(O)CC[C@@]2(C)[C@@H](CC[C@@H]3[C@@H]2CC[C@]2(C)[C@@H]([C@H](C)[C@H](O)C4CCCC4)CC[C@@H]32)C1 [Compound 58, (3S,5S,8R,9S,10S,13S,14S,17R)-17-((1R,2S)-1-cyclopentyl-1-hydroxypropan-2-yl)-3-ethyl-10,13-dimethylhexadecahydro-1H-cyclopenta[a]phenanthren-3-ol]
activation at 1 µM: -40 to -10%

CC(C)CC[C@@H](O)[C@@H](C)[C@H]1CC[C@H]2[C@@H]3CC[C@H]4C[C@](O)(C(F)(F)F)CC[C@]4(C)[C@H]3CC[C@]12C [Compound 85, (3S,5S,8R,9S,10S,13S,14S,17R)-17-((2S,3R)-3-hydroxy-6-methylheptan-2-yl)-10,13-dimethyl-3-(trifluoromethyl)hexadecahydro-1H-cyclopenta[a]phenanthren-3-ol]
activation at 1 µM: -10 to 10%

CC[C@H](O)[C@@H](C)[C@H]1CC[C@H]2[C@@H]3CC[C@H]4C[C@](O)(CC)CC[C@]4(C)[C@H]3CC[C@]12C [Compound 21, (3S,5S,8R,9S,10S,13S,14S,17R)-3-ethyl-17-((2S,3S)-3-hydroxypentan-2-yl)-10,13-dimethylhexadecahydro-1H-cyclopenta[a]phenanthren-3-ol]
activation at 1 µM: -40 to -10%

CC(C)CC[C@H](O)[C@@H](C)[C@H]1CC[C@H]2[C@@H]3CC=C4C[C@@](C)(O)CC[C@@H]4[C@H]3CC[C@]12C [Compound 80, (3S,8R,9S,10R,13S,14S,17R)-17-((2S,3S)-3-hydroxy-6-methylheptan-2-yl)-3,13-dimethyl-2,3,4,7,8,9,10,11,12,13,14,15,16,17-tetradecahydro-1H-cyclopenta[a]phenanthren-3-ol]
activation at 1 µM: -40 to -10%
